# Laboratory results as given in patent US8993569B2, “Diarylpyridazinone derivatives, preparation thereof, and use thereof for the treatment of humans” (Pierre Fabre Medicament, priority 2010, dated 2015).
# Target: T1, human isoform of the Kv1.5 channels (HEK293 cells, stably transfected) (Homo sapiens, UniProt P22460)
# T1 construct: expressed in transfected cells; host or cells: HEK293
# Test: FLIPR thallium ion flux assay on Kv1.5 potassium channel (FLIPR Potassium Ion Channel Assay Kit)
# Type: cell-based
# Settings: 10 μM compound, 15 min at 37° C; HEK293-hKv1.5; thallium fluorescence 30 secs after depolarising solution; normalised with 10 μM DPO
# Method: The pharmacological assessment of the compounds on the Kv1.5 potassium channel was performed in a 96-well plate in FLIPR technology by thallium ion measurement.
# The HEK293 cells, stably transfected with the human isoform of the Kv1.5 channels, are seeded 24 h before experimentation in 96-well plates (15 10^6 cells/plate, 200 μl/well) polylysinated in the following culture medium: DMEM, 10% SVF, Penicillin/Streptomycin, G418 as the selection antibiotic.
# The experimentation in FLIPR is performed using the “FLIPR Potassium Ion Channel Assay Kit) as indicated by the manufacturer (Molecular Devices).
# Briefly, the culture medium is replaced by the solution containing the thallium marker for 90 min at 37° C. Following this step, the compounds to be tested are added to a final concentration of 10 μM in the well for 15 min at 37° C. The basic fluorescence is subsequently read for 60 secs. The addition of a depolarising medium (20 mM of potassium and 3 mM of final thallium), opens the potassium channels and induces an increase in the fluorescence of the fluorophore thallium corresponding to an influx of thallium ions through the hKv1.5 channels. The measurement is performed 30 secs after injection of the depolarising solution. Application of 10 μM of DPO (Tocris, Kv1.5 channel blocker) allows normalisation of the fluorescence.
# T1 sequence (P22460 whole entry, canonical isoform): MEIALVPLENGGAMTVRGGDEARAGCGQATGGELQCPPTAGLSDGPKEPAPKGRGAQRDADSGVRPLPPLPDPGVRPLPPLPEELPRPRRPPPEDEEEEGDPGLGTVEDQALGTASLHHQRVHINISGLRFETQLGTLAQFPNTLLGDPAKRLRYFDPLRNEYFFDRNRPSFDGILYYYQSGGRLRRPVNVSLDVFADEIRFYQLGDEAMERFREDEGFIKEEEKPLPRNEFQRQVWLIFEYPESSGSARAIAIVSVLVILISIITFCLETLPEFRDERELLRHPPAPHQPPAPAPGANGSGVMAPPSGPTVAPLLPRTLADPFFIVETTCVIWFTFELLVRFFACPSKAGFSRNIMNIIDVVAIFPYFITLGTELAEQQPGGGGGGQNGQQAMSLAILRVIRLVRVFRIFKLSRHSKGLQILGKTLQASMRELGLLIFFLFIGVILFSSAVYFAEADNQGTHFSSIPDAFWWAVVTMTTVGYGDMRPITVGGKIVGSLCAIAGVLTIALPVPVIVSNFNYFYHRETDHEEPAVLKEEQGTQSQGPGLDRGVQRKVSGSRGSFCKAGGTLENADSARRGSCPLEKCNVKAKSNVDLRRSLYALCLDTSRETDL
row,inhibition at 10 µM,Structure (SMILES)
1,99.6%,"CC1=C(C(=O)N2CCC[C@H]2c2ccc(F)cc2)[C@@H](c2ccc(Cl)c(Cl)c2)n2nccc2N1 [BMS394136, reference compound]"
2,100%,"CC(c1ccccc1)n1ncc(-c2ccc(O)cc2)c(-c2ccc(O)cc2)c1=O (stereo not shown) [Example 1, 4,5-Bis-(4-hydroxy-phenyl)-2-(1-phenyl-ethyl)-2H-pyridazin-3-one]"
3,100%,"C[C@@H](c1ccccc1)n1ncc(-c2ccc(O)cc2)c(-c2ccc(O)cc2)c1=O [Example 2, 4,5-Bis-(4-hydroxy-phenyl)-2-((S)-1-phenyl-ethyl)-2H-pyridazin-3-one]"
4,43.3%,"C[C@H](c1ccccc1)n1ncc(-c2ccc(O)cc2)c(-c2ccc(O)cc2)c1=O [Example 3, 4,5-Bis-(4-hydroxy-phenyl)-2-((R)-1-phenyl-ethyl)-2H-pyridazin-3-one]"
5,54.9%,"CC(c1ccccc1)n1ncc(-c2ccccc2C#N)c(-c2ccccc2C#N)c1=O (stereo not shown) [Example 4, 2,2′-(6-oxo-1-(1-phenylethyl)-1,6-dihydropyridazine-4,5-diyl)dibenzonitrile]"
6,93.6%,"CC(c1ccccc1)n1ncc(-c2cccc(C#N)c2)c(-c2cccc(C#N)c2)c1=O (stereo not shown) [Example 5, 3,3′-(6-oxo-1-(1-phenylethyl)-1,6-dihydropyridazine-4,5-diyl) dibenzonitrile]"
7,94.2%,"COc1ccc(-c2cnn(C(C)c3ccccc3)c(=O)c2-c2ccc(OC)cc2)cc1 (stereo not shown) [Example 6, 4,5-Bis-(4-methoxy-phenyl)-2-(1-phenyl-ethyl)-2H-pyridazin-3-one]"
8,54.9%,"Cc1ccc(S(=O)(=O)Nc2cccc(-c3cnn(C(C)c4ccccc4)c(=O)c3-c3cccc(NS(=O)(=O)c4ccc(C)cc4)c3)c2)cc1 (stereo not shown) [Example 7, N,N′-(3,3′-(6-oxo-1-(1-phenylethyl)-1,6-dihydropyridazine-4,5-diyl)bis(3,1-phenylene))bis(4-methylbenzenesulfonamide)]"
9,88%,"COc1ccc(-c2c(-c3cccc(C#N)c3)cnn(C(C)c3ccccc3)c2=O)cc1 (stereo not shown) [Example 8, 3-(5-(4-methoxyphenyl)-6-oxo-1-(1-phenylethyl)-1,6-dihydropyridazin-4-yl)benzonitrile]"
10,60.1%,"COc1ccc(-c2c(-c3ccccc3C#N)cnn(C(C)c3ccccc3)c2=O)cc1 (stereo not shown) [Example 9, 2-[5-(4-Methoxy-phenyl)-6-oxo-1-(1-phenyl-ethyl)-1,6-dihydro-pyridazin-4-yl]-benzonitrile]"
